Where no end group is shown, it is not given here.

Here are results for 2 substances from paper PMC3378324 (Febs Letters, 2012).

In one assay the target is Fyn(WT)-SH3 (Homo sapiens, UniProt P06241). Kind of assay: Yeast two-hybrid assay. The settings on record: negative control for RT-loop selection. Type of assay: cell-based.
The next assay has as its system Fyn(R96I)-SH3. In words: Yeast two-hybrid assay. It counts as cell-based, human. The following applies: negative control for RT-loop selection.
In assay [1] the test system is Hck-SH3. In words: Yeast two-hybrid assay. It counts as cell-based, human. The following applies: negative control for RT-loop selection.
Assay [2] concerns Hck-SH3. The settings on record: ITC, ref [12]; cited from earlier work. For orientation: Isothermal titration calorimetry measures the heat released or taken up as one component is titrated into another.

Chain of Fyn(WT)-SH3 (P06241 82-143 limits assumed): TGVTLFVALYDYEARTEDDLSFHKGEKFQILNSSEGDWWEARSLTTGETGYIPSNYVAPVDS

Regarding “SAM68: Src-associated in mitosis 68 kDa (SAM68) protein”, the “yeast two-hybrid interaction strength” value with Fyn(WT)-SH3, in the assay with Fyn(R96I)-SH3 and with Hck-SH3 [1] was “interacted with comparable strength with every SH3 domain” each time.

Turning to PTPPTPAPRTMPPTKPQPPARPPP [ALIXPI], the “binding characteristics toward Hck-SH3 compared with ALIXV+PRR” value in the assay on Hck-SH3 [2] is “did not fully reproduce the binding characteristics of ALIXV+PRR toward Hck-SH3”.
